Experimental data as given in patent US6086849A, “Technetium-99m labeled peptides for imaging” (Diatide, Inc., priority 1995, dated 2000).

Legend:
[1] = system: deep vein thrombus (femoral vein, embolization coil); assay: In vivo imaging of deep vein thrombosis in a canine model; design: species or system dog
Text: Mongrel dogs (25-35 lb., fasted overnight) were sedated with a combination of ketamine and aceprozamine intramuscularly and then anesthetized with sodium pentobarbital intravenously. An 18-gauge angiocath was inserted in the distal half of the right femoral vein and an 8 mm Dacron®-entwinedstainless steel embolization coil (Cook Co., Bloomington Ind.) was placed in the femoral vein at approximately mid-femur in each animal. The catheter was removed, the wound sutured and the placement of the coil documented by X-ray. The animals were then allowed to recover overnight.
One day following coil placement, each animal was re-anesthetized, intravenous saline drips placed in each foreleg and a urinary bladder catheter inserted to collect urine. The animal was placed supine under a gamma camera which was equipped with a low-energy, all purpose collimator and photopeaked for Tc-99m. Images were acquired on a NucLear Mac computer system.
Tc-99m labeled P357 [(CH2 CO--YD.Apc.GDCGGCAcm GCAcm GGC.amide)2 -[BAT-BS]] [185-370 MBq (5-10 mCi) Tc-99m and 0.2-0.4 mg P357] was injected into one foreleg intravenous line at its point of insertion. The second line was maintained for blood collection. Anterior images over the legs were acquired for 500,000 counts or 20 min (whichever was shorter), at approximately 10-20 min, and at approximately 1, 2, 3 and 4 h post-injection. Following the collection of the final image, each animal was deeply anesthetized with pentobarbital. Two blood samples were collected on a cardiac puncture using a heparinized syringe followed by a euthanazing dose of saturated potassium chloride solution administered by intercardiac or bolus intravenous injection. The femoral vein containing the thrombus and samples of thigh muscle were then carefully dissected out. The thrombus was then dissected free of the vessel and placed in a pre-weighed test tube. The thrombus samples were then weighed and counted in a gamma well counter in the Tc-99m channel. Known fractions of the injected doses were counted as well.
Fresh thrombus weight, percent injected dose (%ID)/g in the thrombus and blood obtained just prior to euthanasia and thrombus/blood and thrombus/muscle ratios determined. Thrombus/background ratios were determined by analysis of the counts/pixel measured in regions-of-interest(ROI) drawn over the thrombus and adjacent muscle from computer-stored images.

atherosclerotic plaque = type: in vivo, New Zealand White rabbit
Procedure: Twenty-two New Zealand White (NZW) rabbits of both sexes and weighing 2-3 kg were divided into two groups. The control group consisted of 6 rabbits that were housed and fed commercial rabbit chow (Purina). Sixteen rabbits, the HC group, were fed a standardized, cholesterol-rich diet (rabbit chow mixed to a 1% w/w concentration of cholesterol) from seven weeks until 28 weeks of age. All animals were given water ad libitum.
Tc-99m labeled P215 ([BAT]RALVDTLKFVTQAEGAK.amide) was prepared as described above. Approximately 250-400 μg of peptide was labeled with 140-160 mCi of Tc-99m and prepared in unit doses of 7-8 mCi (12.5-20.0 μg/rabbit; 6-7 μg/kg) in 0.2 mL volume doses. Adult rabbits were dosed with Tc-99m labeled peptide intravenously in a lateral ear vein by slow bolus infusion (approximately 0.1 mL/min). A gamma camera fitted with a pin-hole collimator (5 mm aperture) and energy window set for Tc-99m and programmed to accumulate 500,000 counts or scan for a desired time. Shortly before imaging, animals were anesthetized with a mixture of ketamine and xylazine (5:1, 1 mL/kg intramuscularly).
Gamma camera images were collected at 40-45° just above the heart (left anterior oblique [LAO] view) to delineate the aortic arch and view the descending aorta. Images were acquired at 1 and 2 h and occasionally at 3 and 5 h after injection. Supplementary anesthesia was injected as needed prior to each image collection.
At 2.5 h (after a 2 h scan), animals were sacrificed with an intravenous dose of sodium pentobarbital. Upon necropsy, the aorta was removed and branching vessels dissected free from the aortic valve to the mid-abdominal region. Using a parallel hole collimator, the aorta was imaged ex corpora. Next, the aortae were opened longitudinally and stained with Sudan IV, thereby turning atherosclerotic plaque a deep red brick color. Lipid-free and uninjured aortic endothelium retains its normal, glistening white-pink appearance under these conditions.

[2] = Tc-99m labeled, i.v., tissues after final image (about 4 h), average ± SD

Substance	% ID/g Thrombus ([1]; Tc-99m labeled, i.v., thrombus dissected after final image (about 4 h), average ± SD)	Thrombus/Blood ratio [1, 2]	Thrombus/Muscle ratio [1, 2]	Thrombus/Background ratio ([1]; counts/pixel in ROI over thrombus and adjacent muscle from images, Tc-99m labeled, i.v., n = 1)	Time to clearly established localization of thrombus ([1]; post-injection)	Time of first indications of labeled peptide uptake in images ([1]; post-injection, anterior view over hind legs of one dog (FIG. 4))	Time to unequivocal localization in images ([1]; post-injection, one dog (FIG. 4), persisted until the end of the imaging period)	Persistence of thrombus localization ([1]; post-injection, with increasing contrast and focal definition)	Radioactivity accumulation in HC aortae imaged ex corpora (atherosclerotic plaque; HC-fed rabbits, aorta removed at 2.5 h)	Correlation of in vivo and ex corpora images with Sudan IV deposition patterns (atherosclerotic plaque; HC-treated rabbit aortae)	Imaging of atherosclerotic plaque (uptake) (atherosclerotic plaque; Tc-99m labeled)	Uptake in normal aortic tissue (atherosclerotic plaque; control (plaque-free) aortae)	Principal clearance pathway (atherosclerotic plaque; rabbit, in vivo)	Systemic clearance (atherosclerotic plaque; rabbit, in vivo, iv)
(CH2 CO--YD.Apc.GDCGGCAcm GCAcm GGC.amide)2 -[BAT-BS] [Compound P357]	0.016 ± 0.005 % ID/g	5.6 ± 1.4	17 ± 4.7	2.3	≤ 1 h	23 min	≤ 71 min	~4 h						
[BAT]RALVDTLKFVTQAEGAK.amide [Compound P215]									greatest deposition in the region of the aortic arch	Positive correlations	high uptake	minimal uptake	hepatobiliary system	rapid systemic clearance
